# Experiment: particle size distribution by laser light scattering
# Assay type: physicochemical
# Settings: volumetric, product of working example 1
# Excerpt: The product is obtained in a particularly finely divided form with a narrow particle size distribution. The latter can, for example, be seen from the ratio of the D values, D99, D90, D50, (D10). The D value indicates the percentage of particles smaller than the diameter given as the respective D value. The percentage is given as index, i.e.: D90= . . . means “90% of the particles have a (volumetrically determined) diameter of less than . . . ”. The associated data are obtained by means of laser light scattering.
# The particle size distribution of the zinc bisglycinate produced as described in working example 1 and shown in FIG. 2a was examined more closely by means of laser light scattering. The results are shown in graph form in FIG. 2c.
smiles,measurement,value
"NCC(=O)[O-].NCC(=O)[O-].[Zn+2] [zinc bisglycinate, bis(glycinato-N,O)zinc]",D10 (10% of the particles have diameters of less than),0.86 μm
same,D50 (50% of the particles have diameters of less than),3.41 μm
same,D90 (90% of the particles have diameters of less than),6.82 μm
same,D99 (99% of the particles have diameters of less than),10.00 μm

# Reference: US12398157B2, “Energy-efficient solvent-free method for producing metal chelates” (TECHNISCHE UNIVERSITAT CLAUSTHAL, priority 2017, dated 2025)
